This is an account of results in ChEMBL document CHEMBL2331194, “Ligerin, an antiproliferative chlorinated sesquiterpenoid from a marine-derived Penicillium strain” (J Nat Prod, 2013).

The nature of data set [1]: Antiproliferative activity against rat OSRGA cells assessed as inhibition of cell viability after 72 hrs by XTT assay. It counts as functional, cell-based. (In general: Tetrazolium dyes change colour on reduction, which living cells bring about.)
A short description of data set [2]: Antiproliferative activity against mouse POS1 cells assessed as inhibition of cell viability after 72 hrs by XTT assay. The settings on record: POS1, 72 h. It counts as functional, cell-based.
Data set [3] is described as follows: Antiproliferative activity against mouse L929 cells assessed as inhibition of cell viability at 60 to 2400 nM after 72 hrs by XTT assay. It counts as cell-based. Further details: dose or concentration left out as unconfirmed.
Data set [4] can be described thus: Antiproliferative activity against rat AT6-1 cells assessed as inhibition of cell viability at 60 to 2400 nM after 72 hrs by XTT assay. The format is functional.
Data set [5] can be described thus: Antiproliferative activity against rat OSRGA cells assessed as inhibition of cell viability at 60 to 2400 nM after 72 hrs by XTT assay. It counts as functional.
For data set [6], the system named is L929. As to the kind of experiment: cells. As to conditions: Mus musculus, L929, 72 h.
Description: Antiproliferative activity against mouse L929 cells assessed as inhibition of cell viability after 72 hrs by XTT assay
A short description of data set [7]: cells. As to conditions: Rattus norvegicus, 72 h.
Description: Antiproliferative activity against rat AT6-1 cells assessed as inhibition of cell viability after 72 hrs by XTT assay
The subject of data set [8] is KB. As to the kind of experiment: cells. As to conditions: Homo sapiens, 72 h.
Description: Antiproliferative activity against human KB cells assessed as inhibition of cell viability after 72 hrs by MTT assay

Structures are written as SMILES.

By IC50 is commonly meant the point on the concentration scale where inhibition reaches its midpoint. Turning to `COc1cccc2c1C(=O)c1c(O)c3c(c(O)c1C2=O)C[C@@](O)(C(=O)CO)C[C@@H]3O[C@H]1C[C@H](N)[C@H](O)[C@H](C)O1` [DOXORUBICIN], the 50% inhibitory concentration (IC50) worked out at 93 nM in data set [1] and 43 nM in data set [2].

Usually inhibition stands for the share of the control response that was lost under treatment. Turning to `CO[C@@H]1[C@H](OC(=O)CCC(=O)O)CC[C@](O)(CCl)[C@H]1[C@@]1(C)O[C@@H]1CC=C(C)C` [LIGERIN], the inhibition at 72 h in data set [3] stood at 35%. The “inhibition (INH)” value in data set [4] is 20%; in data set [5], 22%. Further, the IC50 in data set [1] was above 2400 nM; in data set [2], 117 nM; in data set [6], above 2400 nM; in data set [7], above 2400 nM; in data set [8] it was above 478000 nM.

Regarding `C=C(C)C1(O)OC(=O)C=C1OC` (centres undefined) [PENICILLIC ACID], the half-maximal inhibitory concentration (IC50) in data set [2] was 7800 nM; in data set [6] it was 12900 nM; in data set [7], 29400 nM; in data set [8] it was above 100000 nM.
